Tests used:
salmonella = assay: AOAC culture test of aqueous solutions with salmonella contamination; assay type: cell-based; settings: ten minutes exposure
Description: Unless otherwise indicated, antimicrobial evaluations of the various fluorinator compounds tested were performed versus control samples in cultures in accordance with the protocol as set forth in AOAC (15th) 1990:965:13 at colony densities indicated in the examples.
Aqueous solutions were prepared having a salmonella contamination at a cell density of about 500,000 cfu/mL. Two solutions of XeF2 were prepared: one as a 1% solution in 85% phosphoric acid stabilizer, and a second solution containing no stabilizer. The materials were cultured versus controls at concentrations of about 2 ppm and about 4 ppm XeF2 and at a pH of about 9.

E. Coli ATCC 81377 = assay: Hand soap base culture test; assay type: cell-based; settings: about 5 ppm XeF2 in hand soap base, about 320,000 cfu/mL, 30 seconds exposure
Description: (§1) These and other aspects of the present invention may be more fully understood with reference to the following examples, which are merely illustrative of the preferred embodiments of the present invention, and are not to be construed as limiting the invention, the scope of which is defined by the appended claims. Unless otherwise indicated, antimicrobial evaluations of the various fluorinator compounds tested were performed versus control samples in cultures in accordance with the protocol as set forth in AOAC (15th) 1990:965:13 at colony densities indicated in the examples.
(§2) A hand soap base was prepared comprising an aqueous mixture of coconut fatty acid amide and sodium lauryl sulfate surfactants. XeF2 was incorporated into the hand soap base at a level of about 5 ppm and four separate cultures containing various microbes at a level of about 320,000 cfu/mL were evaluated.

[1] = test system: Enterococcus Faecalis (Vancomycin resistance); assay: Hand soap base culture test; assay type: cell-based; settings: about 5 ppm XeF2 in hand soap base, about 320,000 cfu/mL, 30 seconds exposure
Description: as §1, §2

Salmonella ATC 14 = assay: Hand soap base culture test; assay type: cell-based; settings: about 5 ppm XeF2 in hand soap base, about 320,000 cfu/mL, 30 seconds exposure
Description: as §1, §2

[2] = test system: Staph Aureus (Methicillin resistance); assay: Hand soap base culture test; assay type: cell-based; settings: about 5 ppm XeF2 in hand soap base, about 320,000 cfu/mL, 30 seconds exposure
Description: as §1, §2

coliform = assay: AOAC culture test of contaminated water, coliform counts; assay type: cell-based; settings: about 2 PPM XeF2 with about 20 PPM KPS, pH about 7, 37.4 cfu/mL
Description: as §1
Contaminated water was prepared and measured to have AOAC coliform counts averaging 37.4 colony forming units per milliliter (cfu/mL). The water was treated by first adding crystal potassium monopersulfate (KPS) stabilizer, commercially available from E.I. DuPont de Nemours & Co. Corp. as OXONE®, and xenon difluoride (XeF2). The concentration in solution of the KPS and XeF2 was about 20 PPM and about 2 PPM respectively, and the pH of the treated solution was about 7.

bacterial colonies = assay: Industrial cooling tower water, standard immersion test kit; settings: about 1 ppm CoF3 with about 10 ppm KPS, about 1,000 gallons of water, after 24 hours
Excerpt: An industrial cooling tower containing about 1,000 gallons of water tested positive for a high bacterial colony count using a standard immersion test kit.

Row | Compound | inhibition (salmonella; about 2 ppm XeF2, pH about 9, about 500,000 cfu/mL) | inhibition (salmonella; about 4 ppm XeF2, pH about 9, about 500,000 cfu/mL) | Inhibition (%) (E. Coli ATCC 81377) | Inhibition (%) [1] | Inhibition (%) (Salmonella ATC 14) | Inhibition (%) [2] | coliform inhibited (coliform; 5 minutes exposure) | coliform inhibited (coliform; 10 minutes exposure) | immersion kit test result on cooling tower water (bacterial colonies)
1 | F[Xe]F [XeF2, xenon difluoride] | about 13.2% | about 96.4% | 99.9% | 99.9% | 99.9% | 99.5% | about 73% | about 77% | –
2 | [F][Co]([F])[F] [CoF3, cobalt trifluoride] | – | – | – | – | – | – | – | – | complete destruction of bacterial colonies

From US6579541B2, “Oxidative fluorinator compounds as antimicrobials” (priority 2000, dated 2003)
